Assay results reported in PMC7749613 (Journal of Cachexia, Sarcopenia and Muscle, 2020).
Bridge positions count the residues as written; N and C are the ends. Square brackets hold non-standard residues; d marks the D form. Peptide text beside a SMILES is read from it. d2Nal = N[C@H](Cc1ccc2ccccc2c1)C(=O)O; Nle = CCCC[C@H](N)C(=O)O

Assays:
Format in all cases: in vitro ADME
[1] = molecular target: T1, OATP2B1 (Homo sapiens, UniProt O94956); assay: Inhibition of prototypical substrate (E3S) uptake by TCMCB07 in HEK293/OATP2B1 cells
T1 construct: host or cells: HEK293
T1 sequence (O94956 1-709): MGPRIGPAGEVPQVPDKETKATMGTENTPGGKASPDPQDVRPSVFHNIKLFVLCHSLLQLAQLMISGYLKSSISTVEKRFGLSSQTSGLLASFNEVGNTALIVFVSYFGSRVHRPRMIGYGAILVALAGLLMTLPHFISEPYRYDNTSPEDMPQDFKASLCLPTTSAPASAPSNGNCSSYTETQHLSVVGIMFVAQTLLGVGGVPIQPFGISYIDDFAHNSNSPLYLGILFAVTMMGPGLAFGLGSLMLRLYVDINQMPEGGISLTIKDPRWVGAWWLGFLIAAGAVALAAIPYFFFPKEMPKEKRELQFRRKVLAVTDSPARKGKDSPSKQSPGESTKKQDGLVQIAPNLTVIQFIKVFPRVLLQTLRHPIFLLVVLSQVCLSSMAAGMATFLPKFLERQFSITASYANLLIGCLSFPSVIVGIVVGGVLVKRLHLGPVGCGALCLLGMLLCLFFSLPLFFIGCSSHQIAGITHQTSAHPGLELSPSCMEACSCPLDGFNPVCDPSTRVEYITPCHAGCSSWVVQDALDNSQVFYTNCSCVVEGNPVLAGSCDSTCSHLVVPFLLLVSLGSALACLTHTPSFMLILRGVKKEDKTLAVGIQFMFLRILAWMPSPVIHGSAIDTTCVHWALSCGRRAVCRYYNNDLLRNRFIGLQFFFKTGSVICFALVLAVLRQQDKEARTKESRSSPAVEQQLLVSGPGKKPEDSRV
Procedure: (§2) Cells were then washed three times × 1.0 mL each with pre‐warmed Hank's Balanced Salt Solution (HBSS) buffer. A 0.5 mL aliquot of uptake buffer [HBSS plus 10 mM 4‐(2‐hydroxyethyl)‐1‐piperazineethanesulfonic acid (HEPES), pH 7.4], containing the radiolabelled prototypical substrate and mannitol, was then incubated for various times up to 60 min to determine the optimal incubation time for subsequent experiments (i.e. time of sampling during linear uptake conditions). At the designated times, 1.0 mL of ice‐cold HBSS buffer was added to stop uptake after which the cells were rinsed three times with 1.0 mL with ice‐cold HBSS. Hyamine hydroxide (0.33 mL) was then added to each well to lyse the cells. The cells were transferred into a scintillation vial and mixed with 6.0 mL of cytosine scintillation cocktail. Radioactivity of the solubilized cells was determined with a dual‐channel liquid scintillation counter (Beckman LS 6000; Beckman Coulter Inc., Fullerton, CA) and the protein quantified by a bicinchoninic acid protein assay kit (Pierce Biotechnology; Rockford, IL).

[2] = molecular target: T2, OAT3 (Homo sapiens, UniProt Q8TCC7); assay: Inhibition of prototypical substrate (E3S) uptake by TCMCB07 in HEK293/OAT3 cells; settings: substrate 1.0 μM [3H]E3S, 5.0 min, up to 1000 μM TCMCB07
T2 construct: host or cells: HEK293
T2 sequence (Q8TCC7 1-542): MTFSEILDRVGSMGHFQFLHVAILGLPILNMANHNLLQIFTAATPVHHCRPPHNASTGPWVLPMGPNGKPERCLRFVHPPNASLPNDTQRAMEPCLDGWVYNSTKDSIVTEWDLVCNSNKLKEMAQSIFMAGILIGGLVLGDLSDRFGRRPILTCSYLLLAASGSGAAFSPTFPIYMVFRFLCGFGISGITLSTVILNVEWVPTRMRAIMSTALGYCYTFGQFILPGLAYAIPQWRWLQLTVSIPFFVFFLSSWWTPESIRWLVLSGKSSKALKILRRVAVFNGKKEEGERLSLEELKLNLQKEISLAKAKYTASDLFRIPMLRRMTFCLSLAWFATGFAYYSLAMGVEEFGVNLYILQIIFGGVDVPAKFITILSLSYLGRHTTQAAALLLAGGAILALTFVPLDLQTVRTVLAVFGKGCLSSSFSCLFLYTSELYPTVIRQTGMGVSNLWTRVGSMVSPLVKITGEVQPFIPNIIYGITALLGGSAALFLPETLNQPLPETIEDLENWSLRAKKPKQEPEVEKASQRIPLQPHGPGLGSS
Procedure: as §2

[3] = molecular target: T3, MATE1 (Homo sapiens, UniProt Q96FL8)
T3 sequence (Q96FL8 1-570): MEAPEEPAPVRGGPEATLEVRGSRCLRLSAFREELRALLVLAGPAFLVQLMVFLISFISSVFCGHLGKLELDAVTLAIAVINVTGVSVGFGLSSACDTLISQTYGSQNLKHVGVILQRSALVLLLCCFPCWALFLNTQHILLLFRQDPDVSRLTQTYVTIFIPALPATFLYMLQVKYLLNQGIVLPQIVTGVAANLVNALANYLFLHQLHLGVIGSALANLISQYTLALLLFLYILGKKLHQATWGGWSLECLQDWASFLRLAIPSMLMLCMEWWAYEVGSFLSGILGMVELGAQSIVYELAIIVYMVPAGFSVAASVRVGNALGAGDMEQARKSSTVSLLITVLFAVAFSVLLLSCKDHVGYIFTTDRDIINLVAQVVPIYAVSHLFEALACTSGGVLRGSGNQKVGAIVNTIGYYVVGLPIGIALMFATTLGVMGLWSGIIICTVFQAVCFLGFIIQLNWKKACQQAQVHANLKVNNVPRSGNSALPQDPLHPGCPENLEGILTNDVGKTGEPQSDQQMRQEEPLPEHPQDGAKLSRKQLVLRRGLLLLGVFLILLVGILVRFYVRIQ
Procedure: (§1) However, for these studies, a different incubation buffer was used (145 mM NaCl, 3 mM KCl, 1 mM CaCl2, 0.5 mM MgCl2, 5 mM glucose, and 5 mM HEPES, pH 7.4). ^13 Moreover, intracellular acidification was achieved by preincubating the cells in buffer containing 30 mM ammonium chloride for 20 min at 37°C. […] Radioactivity and protein measurements were performed as described previously.

[4] = molecular target: MATE2‐K (Homo sapiens, UniProt Q86VL8)
Procedure: as §1

[5] = molecular target: T4, OATP1B1 (Homo sapiens, UniProt Q9Y6L6); assay: Inhibition of prototypical substrate (E17βG) uptake by TCMCB07 in HEK293/OATP1B1 cells
T4 construct: host or cells: HEK293
T4 sequence (Q9Y6L6 1-691): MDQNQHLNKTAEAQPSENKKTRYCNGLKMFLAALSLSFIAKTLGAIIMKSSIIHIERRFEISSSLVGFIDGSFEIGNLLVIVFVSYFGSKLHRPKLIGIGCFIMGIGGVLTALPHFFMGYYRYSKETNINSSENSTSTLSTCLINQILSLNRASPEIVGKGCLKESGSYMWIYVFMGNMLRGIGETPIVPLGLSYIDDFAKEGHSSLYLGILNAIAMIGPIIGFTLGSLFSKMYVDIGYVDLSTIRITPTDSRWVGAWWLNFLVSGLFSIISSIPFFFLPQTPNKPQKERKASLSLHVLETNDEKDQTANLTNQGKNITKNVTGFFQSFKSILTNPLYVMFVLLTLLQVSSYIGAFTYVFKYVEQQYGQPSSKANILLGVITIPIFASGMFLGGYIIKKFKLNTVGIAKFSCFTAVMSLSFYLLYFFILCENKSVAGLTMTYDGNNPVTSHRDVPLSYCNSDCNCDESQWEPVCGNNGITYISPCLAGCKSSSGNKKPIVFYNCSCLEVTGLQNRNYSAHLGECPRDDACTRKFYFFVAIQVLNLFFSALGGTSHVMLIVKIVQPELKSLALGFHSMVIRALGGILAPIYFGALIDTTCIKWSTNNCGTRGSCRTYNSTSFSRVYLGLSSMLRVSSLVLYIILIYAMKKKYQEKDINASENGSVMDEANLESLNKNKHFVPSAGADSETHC
Procedure: as §2

MATE2‐K, sequence (Q86VL8 1-566 isoform Q86VL8-3): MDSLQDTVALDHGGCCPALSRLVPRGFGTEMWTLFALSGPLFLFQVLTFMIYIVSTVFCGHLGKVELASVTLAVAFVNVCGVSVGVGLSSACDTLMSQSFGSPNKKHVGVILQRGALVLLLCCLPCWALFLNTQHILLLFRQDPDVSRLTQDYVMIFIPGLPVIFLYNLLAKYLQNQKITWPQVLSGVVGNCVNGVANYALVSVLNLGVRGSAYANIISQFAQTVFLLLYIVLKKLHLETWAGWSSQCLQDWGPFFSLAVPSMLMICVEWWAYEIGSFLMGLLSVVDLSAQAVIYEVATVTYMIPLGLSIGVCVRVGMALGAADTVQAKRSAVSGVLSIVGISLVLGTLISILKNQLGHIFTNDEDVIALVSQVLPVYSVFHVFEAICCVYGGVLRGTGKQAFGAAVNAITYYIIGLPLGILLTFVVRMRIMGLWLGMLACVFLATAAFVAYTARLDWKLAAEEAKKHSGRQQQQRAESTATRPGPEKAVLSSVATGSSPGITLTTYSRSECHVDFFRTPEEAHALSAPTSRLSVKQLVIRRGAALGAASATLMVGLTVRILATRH

IC50 [1]: 524 ± 83 µM | IC50 [2]: could not be determined | IC50 [3]: 8.7 ± 0.4 µM | IC50 [4]: 20.7 ± 2.1 µM | IC50 [5]: 6.8 ± 1 µM | Slope factor ([5]; slope factor n of Eqn 1, OATP1B1, substrate E17βG): 1.0 ± 0.1
Compound: CCCC[C@H](NC(C)=O)C(=O)N[C@H]1CC(=O)NCCCC[C@@H](C(=O)N[C@@H](C(=O)N2CCC[C@@H]2C(N)=O)C(C)C)NC(=O)[C@H](Cc2c[nH]c3ccccc23)NC(=O)[C@H](CCCN=C(N)N)NC(=O)[C@@H](Cc2ccc3ccccc3c2)NC(=O)[C@@H]2CCCN2C1=O [TCMCB07, Ac‐Nle‐c[Asp‐Pro‐dNal2′‐Arg‐Trp‐Lys]‐dVal‐dPro‐NH2] (Ac-[Nle]DP[d2Nal]RWK[dV][dP]-NH2; lactam 2-7)
